Reference: patent US12421556B2, “Materials and methods for stratifying and treating cancers” (The Institute of Cancer Research:Royal Cancer Hospital, priority 2017, dated 2025)

How the values were obtained:
advanced STS = details: 1st line, in combination with doxorubicin; cited from earlier work
[1] = tested on: advanced soft tissue sarcoma; assay: RMH-SARC retrospective cohort: advanced STS patients treated with pazopanib, PFS, OS and RECIST 1.1 response; type: in vivo, human
Source text: Collection and analysis of anonymised archival FFPE tissue and associated clinical data was approved in as a sub-study protocol amendment to the Royal Marsden-sponsored Elucidation of a Molecular signature of Pazopanib Response in Advanced soft tissue Sarcoma including solitary fibrous tumours (EMPRASS) study. (RMH Committee for Clinical Research reference 4107, NHS Research Ethic Committee reference 14/WA/0164). This cohort is referred to as RMH-SARC in this manuscript.
Patients were retrospectively identified for inclusion by search of institutional database and electronic patient records compiled during routine clinical practice. Eligibility criteria for inclusion were: i) histopathological diagnosis of soft tissue tumour as confirmed by contemporaneous report by specialist sarcoma histopathologist; ii) received at least one dose of pazopanib for treatment of unresectable or advanced STS; iii) available FFPE tumour specimen, obtained from patient prior to first dose of pazopanib. Treatment and response monitoring was as per standard institutional practice, with pazopanib at 800 mg once daily until disease progression, intolerable toxicity or significant clinical deterioration. Dose interruption and/or reduction were instigated based on standard institutional guidelines and the discretion of the treating physician. Baseline clinico-pathological characteristics and survival data were collected on retrospective review of contemporaneous electronic medical records. All related radiological imaging was retrospectively reviewed and disease response assessed according to RECIST 1.1. This manuscript is written according to the Reporting Recommendations for Tumor Marker Prognostic Studies (REMARK) guidelines15.
The stepwise primary objectives were to assess whether a surrogate of two immunohistochemical markers (FGFR1 and PDGFRA) and TP53 mutation status had statistical significant prognostic information for advanced STS. In this event, the two biomarkers panel were tested to determine if there is added statistically significant prognostic information to standard clinicopathological variables in multivariable comparisons. The secondary analyses included identification of biological subgroups based on gene expression profiles, and evaluation of the significance of these biological subgroups association with patient outcome. Progression free survival (PFS—defined as time in months from first dose of pazopanib to radiological disease progression or death from any cause) was the primary outcome endpoint, with overall survival (OS—defined as a time in months from first dose of pazopanib to death from any cause) as the secondary outcome endpoint. Data cut-off for survival follow-up was 30 Nov. 2016. Statistical analyses were performed by two senior statisticians. The Kaplan-Meier method was used to estimate PFS and OS, and the log-rank test to compare survival in different strata. Multivariable cox regression model was used to estimate the significance adjusted for the standard clinicopathological variables (including age, tumour grade, performance status and histological subtype). Proportional hazard assumption was tested using Schoenfeld residuals, and where deemed appropriate, Restricted Mean Survival was used. Interaction tests between FGFR1 and PDGFRA expression to predict for survival were evaluated for PFS and OS respectively. Likelihood ratio tests based on proportional hazards regression were used to test the prognostic information of all biomarkers. The quantification of the amount of prognostic information provided by one biomarker was assessed by the likelihood ratio χ^2 value (LRχ^2), and the additional information of one biomarker to biomarker score was measured by the increase of the likelihood ratio χ^2 value (ΔLRχ^2) obtained from the proportional hazards model.
Patients were identified by retrospective search of prospectively compiled institutional database and electronic patient records. […]

STS subtypes = details: randomised phase II trial; cited from earlier work
[2] = F-Lo/P-Hi (FGFR1-Lo/PDGFRA-Hi) subgroup
[3] = gene expression subgroup A (IHCneg, TP53 wt)

## olaratumab
Advanced STS
  OS benefit: marked OS benefit

## Cc1ccc(Nc2nccc(N(C)c3ccc4c(C)n(C)nc4c3)n2)cc1S(N)(=O)=O [pazopanib, Pazopanib]
[1]; 31 of 38 patients, median follow-up 26.2 months
  patients who had died (overall survival event): 82%
[1]; 35 of 38 patients, median follow-up 26.2 months
  patients with a progression-free survival event: 92%
[1]; [2]
  median OS: 1.7 months
  median PFS: 1.4 months
[1]; F-Lo/P-Hi v. IHCneg, adjusted for clinico-pathological factors, 95% CI 3.86-40.72
  PFS HR, multivariable analysis: 12.54
[1]; F-Lo/P-Hi v. IHCneg, adjusted, 95% CI 5.90-82.81
  OS HR, multivariable analysis: 22.11
[1]; FGFR1-Lo/PDGFRA-Hi v. IHCneg, 95% CI 2.51-17.91
  OS HR, univariate analysis: 6.70
[1]; FGFR1-Lo/PDGFRA-Hi v. IHCneg, 95% CI 3.58-25.94
  PFS HR, univariate analysis: 9.64
[1]; RECIST 1.1, 17/38
  progression as best response: 44.7%
[1]; RECIST 1.1, best response, 1/38
  objective radiological response: 2.6%
[1]; RECIST 1.1, best response, 20/38
  stable disease: 52.6%
[1]; TP53 mutated v. wildtype, all 38 patients, 95% CI 0.83-3.76, P 0.14
  PFS HR, univariate analysis: 1.77
[1]; TP53 mutated v. wildtype, all 38 patients, 95% CI 1.15-5.51, P 0.02
  OS HR, univariate analysis: 2.51
[1]; TP53 mutation v. wildtype in 31 IHCneg cases, 95% CI 1.03-5.34, p=0.04
  PFS HR: 2.34
[1]; TP53 mutation v. wildtype in 31 IHCneg cases, 95% CI 1.44-8.39, p=0.003
  OS HR: 3.47
[1]; TP53 mutation v. wildtype, adjusted, 95% CI 1.45-10.86, p=0.007
  PFS HR, multivariable analysis: 3.97
[1]; TP53 mutation v. wildtype, adjusted, 95% CI 2.56-24.41
  OS HR, multivariable analysis: 7.90
[1]; [3]
  median OS: 34.4 months
  median PFS: 12.8 months
[1]; high v. low PDGFRA expression, 95% CI 1.01-4.35, p=0.04
  OS HR: 2.08
[1]; patients with partial response or stable disease
  median PFS: 6.4 months
[1]; subgroup A v. subgroup B or C, 22 IHCnegTP53 wt patients, 95% CI 0.04-0.96, p=0.03
  OS HR: 0.20
[1]; subgroup A v. subgroup B or C, 22 IHCnegTP53 wt patients, 95% CI 0.09-0.85, p=0.02
  PFS HR: 0.27
[1]; whole cohort, 38 patients
  median OS: 9.5 months
[1]; whole cohort, 38 patients, pazopanib 800 mg once daily
  median PFS: 3.7 months

## CNC(=O)c1cc(Oc2ccc(NC(=O)Nc3ccc(Cl)c(C(F)(F)F)c3)c(F)c2)ccn1 [regorafenib, Regorafenib]
STS subtypes
  efficacy in STS subtypes: efficacy in several STS subtypes but not adipocytic tumours
